# Patent US9693556B2, “Herbicidal pyridazinone derivatives” (SYNGENTA LIMITED, priority 2011, dated 2017)
# Experiments:
# Format in all cases: in vivo
# [1] = tested on: Echinochloa crus-galli (ECHCG); assay: Post-emergence herbicidal glasshouse test on Echinochloa crus-galli; details: post-emergence; 1000 g/h; evaluated after 13 days
# In short: (§1)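 Scoring scale: 5=80-100%, 4=60-79%, 3=40-59%, 2=20-39%, 1=0-19% damage, assessed on day 13. Compound sprayed at 1000 g/h on soil-grown plants (day 1 pre-, day 8 post-emergence) kept at 24/16 °C, 14 h light.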
# Solanum nigrum (SOLNI) [2] = assay: Pre-emergence herbicidal glasshouse test on Solanum nigrum; details: pre-emergence; 1000 g/h; evaluated after 13 days
# In short: as §1
# Setaria faberi (SETFA) [3] = assay: Pre-emergence herbicidal glasshouse test on Setaria faberi; details: pre-emergence; 1000 g/h; evaluated after 13 days
# In short: as §1
# [4] = tested on: Amaranthus retoflexus (AMARE); assay: Post-emergence herbicidal glasshouse test on Amaranthus retoflexus; details: post-emergence; 1000 g/h; evaluated after 13 days
# In short: as §1
# Solanum nigrum (SOLNI) [5] = assay: Post-emergence herbicidal glasshouse test on Solanum nigrum; details: post-emergence; 1000 g/h; evaluated after 13 days
# In short: as §1
# [6] = tested on: Ipomoea hederacea (IPOHE); assay: Pre-emergence herbicidal glasshouse test on Ipomoea hederacea; details: pre-emergence; 1000 g/h; evaluated after 13 days
# In short: as §1
# [7] = tested on: Ipomoea hederacea (IPOHE); assay: Post-emergence herbicidal glasshouse test on Ipomoea hederacea; details: post-emergence; 1000 g/h; evaluated after 13 days
# In short: as §1
# [8] = tested on: Echinochloa crus-galli (ECHCG); assay: Pre-emergence herbicidal glasshouse test on Echinochloa crus-galli; details: pre-emergence; 1000 g/h; evaluated after 13 days
# In short: as §1
# Setaria faberi (SETFA) [9] = assay: Post-emergence herbicidal glasshouse test on Setaria faberi; details: post-emergence; 1000 g/h; evaluated after 13 days
# In short: as §1
# [10] = tested on: Amaranthus retoflexus (AMARE); assay: Pre-emergence herbicidal glasshouse test on Amaranthus retoflexus; details: pre-emergence; 1000 g/h; evaluated after 13 days
# In short: as §1
# [11] = tested on: Alopecurus myosuroides (ALOMY); assay: Pre-emergence herbicidal glasshouse test on Alopecurus myosuroides; details: pre-emergence; 1000 g/h; evaluated after 13 days
# In short: as §1
# [12] = tested on: Alopecurus myosuroides (ALOMY); assay: Post-emergence herbicidal glasshouse test on Alopecurus myosuroides; details: post-emergence; 1000 g/h; evaluated after 13 days
# In short: as §1
SMILES,POST Application ECHCG herbicidal damage (five point scale) [1],PRE Application SOLNI herbicidal damage (five point scale) (Solanum nigrum (SOLNI) [2]),PRE Application SETFA herbicidal damage (five point scale) (Setaria faberi (SETFA) [3]),POST Application AMARE herbicidal damage (five point scale) [4],POST Application SOLNI herbicidal damage (five point scale) (Solanum nigrum (SOLNI) [5]),PRE Application IPOHE herbicidal damage (five point scale) [6],POST Application IPOHE herbicidal damage (five point scale) [7],PRE Application ECHCG herbicidal damage (five point scale) [8],POST Application SETFA herbicidal damage (five point scale) (Setaria faberi (SETFA) [9]),PRE Application AMARE herbicidal damage (five point scale) [10],PRE Application ALOMY herbicidal damage (five point scale) [11],POST Application ALOMY herbicidal damage (five point scale) [12]
C=CCn1ncc(-c2ccccc2S(C)(=O)=O)c(O)c1=O [Compound 2.001],5 (5=80-100% damage),5 (5=80-100% damage),5 (5=80-100% damage),5 (5=80-100% damage),5 (5=80-100% damage),5 (5=80-100% damage),5 (5=80-100% damage),5 (5=80-100% damage),5 (5=80-100% damage),5 (5=80-100% damage),5 (5=80-100% damage),5 (5=80-100% damage)
CC#Cc1ccc(-c2cnn(C)c(=O)c2O)c(S(C)(=O)=O)c1 [Compound 2.029],5 (5=80-100% damage),5 (5=80-100% damage),3 (3=40-59% damage),5 (5=80-100% damage),5 (5=80-100% damage),1 (1=0-19% damage),5 (5=80-100% damage),5 (5=80-100% damage),5 (5=80-100% damage),5 (5=80-100% damage),5 (5=80-100% damage),5 (5=80-100% damage)
Cn1ncc(-c2ccc(C(F)(F)F)cc2S(=O)(=O)N2CCOCC2)c(O)c1=O [Compound 2.049],5 (5=80-100% damage),5 (5=80-100% damage),2 (2=20-39% damage),5 (5=80-100% damage),5 (5=80-100% damage),4 (4=60-79% damage),5 (5=80-100% damage),5 (5=80-100% damage),1 (1=0-19% damage),5 (5=80-100% damage),1 (1=0-19% damage),1 (1=0-19% damage)
CCn1ncc(-c2cc3cccnc3nc2C(F)(F)F)c(O)c1=O [Compound 5.001],5 (5=80-100% damage),5 (5=80-100% damage),5 (5=80-100% damage),5 (5=80-100% damage),5 (5=80-100% damage),5 (5=80-100% damage),5 (5=80-100% damage),5 (5=80-100% damage),5 (5=80-100% damage),5 (5=80-100% damage),5 (5=80-100% damage),5 (5=80-100% damage)
Cn1ncc(-c2ccc(S(C)(=O)=O)cc2S(C)(=O)=O)c(O)c1=O [Compound 1.119],5 (5=80-100% damage),5 (5=80-100% damage),5 (5=80-100% damage),5 (5=80-100% damage),5 (5=80-100% damage),5 (5=80-100% damage),5 (5=80-100% damage),5 (5=80-100% damage),5 (5=80-100% damage),5 (5=80-100% damage),5 (5=80-100% damage),5 (5=80-100% damage)
